The target of data set [1] is T1, Metabotropic glutamate receptor 5 (Homo sapiens, UniProt P41594). Nature of the data set: Positive allosteric modulation of human mGlu5 expressed in HEK293 cells assessed as glutamate-induced calcium mobilization. It counts as functional, cell-based. The note with it: read-out: EC50. (Calcium assays in cells follow changes in intracellular calcium, usually with a dye or a luminescent sensor.)
Target sequence in this assay (P41594 whole entry): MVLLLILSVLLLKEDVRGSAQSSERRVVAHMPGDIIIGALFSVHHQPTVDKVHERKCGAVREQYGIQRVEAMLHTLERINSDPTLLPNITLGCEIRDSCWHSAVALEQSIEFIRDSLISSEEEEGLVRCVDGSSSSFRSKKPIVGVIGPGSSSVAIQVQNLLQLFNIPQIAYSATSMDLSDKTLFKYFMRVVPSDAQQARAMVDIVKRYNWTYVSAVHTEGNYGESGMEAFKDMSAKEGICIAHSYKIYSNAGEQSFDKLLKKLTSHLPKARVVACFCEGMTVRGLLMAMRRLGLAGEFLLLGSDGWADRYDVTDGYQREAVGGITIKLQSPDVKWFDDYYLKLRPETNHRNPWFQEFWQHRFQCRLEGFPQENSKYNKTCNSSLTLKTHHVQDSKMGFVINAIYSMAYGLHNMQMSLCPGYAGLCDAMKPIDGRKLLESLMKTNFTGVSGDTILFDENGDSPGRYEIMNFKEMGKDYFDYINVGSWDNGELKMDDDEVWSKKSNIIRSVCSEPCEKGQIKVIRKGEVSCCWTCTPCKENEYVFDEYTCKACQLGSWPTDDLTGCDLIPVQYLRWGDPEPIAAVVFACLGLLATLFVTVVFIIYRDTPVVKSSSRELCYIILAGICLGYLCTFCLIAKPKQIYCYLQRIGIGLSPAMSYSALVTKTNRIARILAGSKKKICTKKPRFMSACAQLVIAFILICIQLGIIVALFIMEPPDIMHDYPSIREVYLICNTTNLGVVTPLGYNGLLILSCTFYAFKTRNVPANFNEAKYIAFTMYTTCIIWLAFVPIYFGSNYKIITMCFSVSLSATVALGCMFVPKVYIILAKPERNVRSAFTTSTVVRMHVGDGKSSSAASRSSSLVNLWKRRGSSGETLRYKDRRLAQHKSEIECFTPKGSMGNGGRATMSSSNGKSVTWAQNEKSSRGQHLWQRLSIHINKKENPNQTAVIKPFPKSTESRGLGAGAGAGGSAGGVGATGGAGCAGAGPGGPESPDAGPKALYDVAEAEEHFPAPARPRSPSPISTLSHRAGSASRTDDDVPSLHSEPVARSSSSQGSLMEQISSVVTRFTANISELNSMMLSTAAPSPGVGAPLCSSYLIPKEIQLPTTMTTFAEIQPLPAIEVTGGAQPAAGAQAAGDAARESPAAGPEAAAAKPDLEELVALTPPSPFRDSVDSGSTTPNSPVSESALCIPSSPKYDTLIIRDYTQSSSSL

Data set [2] deals with T1, Metabotropic glutamate receptor 5. Nature of the data set: Positive allosteric modulation of human mGlu5 expressed in HEK293 cells assessed as glutamate-induced calcium mobilization relative to glutamate. It counts as functional, cell-based.
Target sequence in this assay (P41594 21-1212 limits assumed): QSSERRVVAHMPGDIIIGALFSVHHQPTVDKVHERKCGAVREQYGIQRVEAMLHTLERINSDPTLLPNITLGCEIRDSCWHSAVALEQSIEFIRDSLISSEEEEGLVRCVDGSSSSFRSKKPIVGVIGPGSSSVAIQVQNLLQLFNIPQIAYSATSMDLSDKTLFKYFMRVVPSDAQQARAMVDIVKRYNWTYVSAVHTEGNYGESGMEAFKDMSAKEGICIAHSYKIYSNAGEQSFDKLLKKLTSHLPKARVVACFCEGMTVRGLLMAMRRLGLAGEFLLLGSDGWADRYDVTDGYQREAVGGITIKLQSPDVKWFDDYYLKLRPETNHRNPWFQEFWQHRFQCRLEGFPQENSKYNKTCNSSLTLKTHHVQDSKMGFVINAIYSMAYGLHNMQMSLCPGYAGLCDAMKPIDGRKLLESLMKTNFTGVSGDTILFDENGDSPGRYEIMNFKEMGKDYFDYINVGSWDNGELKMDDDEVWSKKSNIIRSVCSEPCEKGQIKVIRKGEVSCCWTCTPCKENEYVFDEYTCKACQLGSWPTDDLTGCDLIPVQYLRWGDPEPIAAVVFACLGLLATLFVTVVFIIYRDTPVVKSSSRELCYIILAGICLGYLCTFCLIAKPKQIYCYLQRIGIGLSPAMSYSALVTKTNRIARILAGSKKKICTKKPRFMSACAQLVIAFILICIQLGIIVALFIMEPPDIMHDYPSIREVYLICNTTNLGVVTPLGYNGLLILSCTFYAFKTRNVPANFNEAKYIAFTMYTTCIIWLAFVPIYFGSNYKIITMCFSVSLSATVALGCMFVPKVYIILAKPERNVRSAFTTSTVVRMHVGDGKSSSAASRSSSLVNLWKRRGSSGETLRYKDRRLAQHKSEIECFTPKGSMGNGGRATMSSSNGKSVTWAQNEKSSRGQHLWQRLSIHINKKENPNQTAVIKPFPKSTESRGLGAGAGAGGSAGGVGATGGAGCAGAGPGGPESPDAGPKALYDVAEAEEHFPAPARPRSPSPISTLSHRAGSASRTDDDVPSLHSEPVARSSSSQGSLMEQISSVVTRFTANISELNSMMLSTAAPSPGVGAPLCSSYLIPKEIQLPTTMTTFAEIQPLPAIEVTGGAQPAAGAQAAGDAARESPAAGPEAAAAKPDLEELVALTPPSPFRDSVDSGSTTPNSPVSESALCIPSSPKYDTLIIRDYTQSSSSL
Data set [3] addresses Metabotropic glutamate receptor 3 (Homo sapiens, UniProt Q14832). Nature of the data set: Antagonist activity at human mGlu3 expressed in HEK293 cells assessed as inhibition of glutamate-induced calcium mobilization. It counts as functional, cell-based.
The target of data set [4] is Metabotropic glutamate receptor 1 (Homo sapiens, UniProt Q13255). As to the kind of experiment: Positive allosteric modulation of human mGlu1 receptor expressed in HEK293 cells assessed as calcium mobilization by fluorescence analysis. In kind it is functional, cell-based.
Data set [5] addresses Metabotropic glutamate receptor 2 (Homo sapiens, UniProt Q14416). As to the kind of experiment: Positive allosteric modulation of human mGlu2 receptor expressed in HEK293 cells assessed as calcium mobilization by fluorescence analysis. It counts as functional, cell-based.
In data set [6] the target is Metabotropic glutamate receptor 7 (Homo sapiens, UniProt Q14831). As to the kind of experiment: Positive allosteric modulation of human mGlu7 receptor expressed in HEK293 cells assessed as calcium mobilization by fluorescence analysis. In kind it is functional, cell-based.
Data set [7] concerns the target Metabotropic glutamate receptor 8 (Homo sapiens, UniProt O00222). As to the kind of experiment: Positive allosteric modulation of human mGlu8 receptor expressed in HEK293 cells assessed as calcium mobilization by fluorescence analysis. In kind it is functional, cell-based.
The target in data set [8] is T2, Metabotropic glutamate receptor 4 (Homo sapiens, UniProt Q14833). Nature of the data set: Positive allosteric modulation of human mGlu4 receptor expressed in HEK293 cells assessed as calcium mobilization by fluorescence analysis. In kind it is functional, cell-based.
T2 sequence (Q14833 whole entry): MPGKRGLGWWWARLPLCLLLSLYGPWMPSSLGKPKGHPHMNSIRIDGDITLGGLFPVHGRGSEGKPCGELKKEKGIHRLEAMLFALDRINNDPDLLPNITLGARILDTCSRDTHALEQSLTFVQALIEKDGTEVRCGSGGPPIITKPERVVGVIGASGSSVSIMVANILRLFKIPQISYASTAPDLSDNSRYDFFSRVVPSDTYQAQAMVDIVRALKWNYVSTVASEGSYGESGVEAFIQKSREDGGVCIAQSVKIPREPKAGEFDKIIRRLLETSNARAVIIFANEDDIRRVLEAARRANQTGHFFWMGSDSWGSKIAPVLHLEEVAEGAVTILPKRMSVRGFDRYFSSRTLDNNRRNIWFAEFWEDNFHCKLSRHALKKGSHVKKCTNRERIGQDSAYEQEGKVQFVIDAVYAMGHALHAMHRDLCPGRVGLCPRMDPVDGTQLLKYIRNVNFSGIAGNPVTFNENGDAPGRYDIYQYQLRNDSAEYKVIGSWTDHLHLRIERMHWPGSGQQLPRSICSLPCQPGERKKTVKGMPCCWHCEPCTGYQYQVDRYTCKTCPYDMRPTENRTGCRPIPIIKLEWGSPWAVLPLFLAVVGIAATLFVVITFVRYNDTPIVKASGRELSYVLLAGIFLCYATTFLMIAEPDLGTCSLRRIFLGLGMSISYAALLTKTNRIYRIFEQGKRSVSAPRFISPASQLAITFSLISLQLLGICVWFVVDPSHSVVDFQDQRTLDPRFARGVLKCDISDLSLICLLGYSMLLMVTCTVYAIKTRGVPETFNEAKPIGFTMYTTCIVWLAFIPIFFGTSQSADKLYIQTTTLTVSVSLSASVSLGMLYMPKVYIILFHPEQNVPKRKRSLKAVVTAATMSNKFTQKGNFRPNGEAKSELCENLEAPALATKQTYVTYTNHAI
The target of data set [9] is T2, Metabotropic glutamate receptor 4. As to the kind of experiment: Positive allosteric modulation of human mGlu4 receptor expressed in L929sA cells assessed as calcium mobilization by fluorescence analysis. In kind it is functional, cell-based.
Data set [10] has the same target. Nature of the data set: Positive allosteric modulation of human mGlu4 receptor expressed in HEK293 cells by [35S]-GTPgammaS binding assay. It counts as functional, cell-based. A general note: GTPγS is a poorly hydrolysed GTP analogue; its binding reports G protein activation.
For data set [11] the target is unchanged. Nature of the data set: Positive allosteric modulation of human mGlu4 receptor expressed in L929sA cells by [35S]-GTPgammaS binding assay. It counts as functional, cell-based.
The target in data set [12] is Metabotropic glutamate receptor 6 (Rattus norvegicus, UniProt P35349). Nature of the data set: Positive allosteric modulation of rat mGlu6 receptor expressed in CHO cells by [35S]-GTPgammaS binding assay. It counts as functional, cell-based.
The nature of data set [13]: Percentage unbound in rat brain. In kind it is ADME, tissue-based. The note with it: brain tissue.

Experimental findings from ChEMBL document CHEMBL3745662, “Preliminary investigation of 6,7-dihydropyrazolo[1,5-a]pyrazin-4-one derivatives as a novel series of mGlu5 receptor positive allosteric modulators with efficacy in preclinical models of schizophrenia” (Bioorg Med Chem Lett, 2016) are described below.

In general, EC50 refers to the concentration at which the effect is half-maximal. As a reminder, the Emax is the greatest response seen or fitted, relative to the assay's reference. What is called fraction unbound is free concentration divided by total concentration. Read a high fraction unbound as much free substance.

Chain of Metabotropic glutamate receptor 3 (Q14832 whole entry): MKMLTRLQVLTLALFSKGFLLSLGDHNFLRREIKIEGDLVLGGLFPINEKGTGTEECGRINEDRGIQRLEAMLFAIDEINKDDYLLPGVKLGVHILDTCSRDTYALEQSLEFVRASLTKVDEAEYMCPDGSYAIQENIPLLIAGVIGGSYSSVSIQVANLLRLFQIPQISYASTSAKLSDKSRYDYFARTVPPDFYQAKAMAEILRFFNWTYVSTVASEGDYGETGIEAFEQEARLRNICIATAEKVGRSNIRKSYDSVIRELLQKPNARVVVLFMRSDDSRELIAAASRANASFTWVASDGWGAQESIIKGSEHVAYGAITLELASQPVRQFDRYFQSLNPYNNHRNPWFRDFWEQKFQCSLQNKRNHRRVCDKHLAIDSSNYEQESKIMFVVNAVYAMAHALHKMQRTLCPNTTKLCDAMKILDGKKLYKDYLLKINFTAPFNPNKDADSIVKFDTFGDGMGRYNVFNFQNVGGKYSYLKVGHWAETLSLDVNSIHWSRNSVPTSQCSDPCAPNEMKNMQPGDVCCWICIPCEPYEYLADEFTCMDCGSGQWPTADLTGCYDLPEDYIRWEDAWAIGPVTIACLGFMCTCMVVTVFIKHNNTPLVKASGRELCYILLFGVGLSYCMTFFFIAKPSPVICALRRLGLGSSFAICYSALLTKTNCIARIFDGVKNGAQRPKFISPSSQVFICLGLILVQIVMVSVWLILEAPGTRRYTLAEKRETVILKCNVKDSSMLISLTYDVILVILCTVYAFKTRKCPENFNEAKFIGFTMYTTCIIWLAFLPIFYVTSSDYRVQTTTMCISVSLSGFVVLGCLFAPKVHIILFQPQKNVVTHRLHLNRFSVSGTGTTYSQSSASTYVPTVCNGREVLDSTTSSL
Chain of Metabotropic glutamate receptor 8 (O00222 whole entry): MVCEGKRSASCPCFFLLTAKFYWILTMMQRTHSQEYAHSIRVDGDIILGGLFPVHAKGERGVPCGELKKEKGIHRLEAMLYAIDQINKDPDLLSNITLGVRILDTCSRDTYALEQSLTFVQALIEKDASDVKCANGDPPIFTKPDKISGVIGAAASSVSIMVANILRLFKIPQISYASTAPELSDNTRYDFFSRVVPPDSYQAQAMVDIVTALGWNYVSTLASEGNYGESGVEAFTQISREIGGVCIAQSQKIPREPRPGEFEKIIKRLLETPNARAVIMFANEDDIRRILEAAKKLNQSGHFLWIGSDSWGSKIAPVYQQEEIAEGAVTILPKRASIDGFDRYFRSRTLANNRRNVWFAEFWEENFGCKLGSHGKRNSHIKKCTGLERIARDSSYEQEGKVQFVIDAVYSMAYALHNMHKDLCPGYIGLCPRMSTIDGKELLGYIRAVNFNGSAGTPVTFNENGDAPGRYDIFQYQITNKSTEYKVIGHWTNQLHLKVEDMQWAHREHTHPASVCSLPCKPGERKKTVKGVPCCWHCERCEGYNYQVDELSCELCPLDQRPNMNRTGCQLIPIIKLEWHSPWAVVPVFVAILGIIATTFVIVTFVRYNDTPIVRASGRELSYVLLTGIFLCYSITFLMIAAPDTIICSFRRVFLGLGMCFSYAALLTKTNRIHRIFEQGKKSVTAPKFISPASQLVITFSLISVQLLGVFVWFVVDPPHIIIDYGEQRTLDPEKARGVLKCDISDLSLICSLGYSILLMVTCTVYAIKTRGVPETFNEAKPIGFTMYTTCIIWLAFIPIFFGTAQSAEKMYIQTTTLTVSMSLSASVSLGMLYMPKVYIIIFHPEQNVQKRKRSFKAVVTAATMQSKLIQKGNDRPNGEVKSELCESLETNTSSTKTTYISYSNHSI

`O=C1c2cc(COc3ccccc3)nn2CCN1c1ncc(F)cn1`: the half-maximal effective concentration (EC50) in data set [1] was 760 nM. Moreover, the Emax in data set [2] is 72%.
As for `O=C1c2cc(COc3ccccc3)nn2CCN1c1ccccc1F`, in [1], the 50% effective concentration (EC50) was 160 nM. Also, the Emax in data set [2] worked out at 86%.
`O=C1c2cc(COc3cccc(F)c3)nn2CCN1c1ccc(F)cn1`: the EC50 in data set [1] came to 91 nM. For the same compound, the Emax in data set [2] was found to be 62%.
For `COc1ccc(N2CCn3nc(COc4ccccc4)cc3C2=O)cc1`, in that order: 110 nM and 58%.
In the case of `O=C1c2cc(OCc3ccccc3)nn2CCN1c1ccc(F)cc1`, the EC50 is 160 nM in data set [1]; 3390 nM in data set [3]; above 10000 nM in data set [4]; above 10000 nM in data set [5]; above 10000 nM in data set [6]; above 10000 nM in data set [7]. The EC50 in [8], in data set [9], in data set [10], in data set [11] and in [12] was above 10000 nM throughout. The maximal effect (Emax) in data set [2] stood at 54%. Besides, the fraction unbound in [13] stood at 0.065.
`O=C1c2cc(COc3ccccc3)nn2CCN1c1ccc(F)cc1`: the EC50 in data set [1] amounted to 65 nM; in [3], 74 nM. Further, the Emax in data set [2] was 79%.
For the compound `O=C1c2cc(COc3ccccc3)nn2CCN1c1ccc(F)cc1F`, the EC50 in data set [1] was 100 nM. The Emax in [2] amounted to 101%.
In the case of `CC(Oc1ccccc1)c1cc2n(n1)CCN(c1ccc(F)cc1)C2=O` (configuration not stated), the EC50 in data set [1] was determined as 7760 nM. In data set [2], the Emax was 65%.
For `O=C1c2cc(COc3ccncc3)nn2CCN1c1ccc(F)cc1`, in that order: 690 nM and 69%.
For the compound `O=C1c2cc(COc3ccccc3)nn2CCN1c1cccc(F)c1`, the EC50 in [1] worked out at 130 nM. Also, the Emax in [2] was 81%.
Consider `Cc1ccc(N2CCn3nc(COc4ccccc4)cc3C2=O)cc1`, for which the EC50 in [1] came to 71 nM; in [3] it was 150 nM. Besides, the Emax in data set [2] came out at 65%.
Consider `O=C1c2cc(COc3ccc(F)cn3)nn2CCN1c1ccc(F)cc1`, for which the EC50 in data set [1] was 7940 nM. The maximal response (Emax) in data set [2] was 52%.
`O=C1c2nc(COc3ccccc3)nn2CCN1c1ccc(F)cc1`: the EC50 in [1] was determined as 2340 nM. Moreover, the maximal response (Emax) in [2] stood at 65%.
As to `O=C1c2cc(OCc3ccccc3)nn2CCN1c1cc(F)ccn1`, the EC50 in data set [1] is above 30000 nM.
In the case of `Cc1c(COc2ccccc2)nn2c1C(=O)N(c1ccc(F)cc1)CC2`, the EC50 in data set [1] came out at 1230 nM. For the same compound, the Emax in [2] was found to be 32%.
